Each structure is given as a SMILES string.

The target of the test is T1, cathepsin L protease (Homo sapiens, UniProt P07711).
T1 construct: purchased BPS Bioscience
The test can be described thus: Protease inhibition, cell-free fluorogenic kit (BPS Bioscience). The test is classed as biochemical.

T1 sequence (P07711 114-333): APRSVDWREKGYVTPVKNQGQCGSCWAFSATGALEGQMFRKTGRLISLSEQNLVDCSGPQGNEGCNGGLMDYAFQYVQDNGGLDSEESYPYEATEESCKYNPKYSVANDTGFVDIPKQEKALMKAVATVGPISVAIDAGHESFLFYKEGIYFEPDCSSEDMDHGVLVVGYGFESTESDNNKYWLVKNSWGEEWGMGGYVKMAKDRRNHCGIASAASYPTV

For the compound `CC(C)C[C@H](NC(=O)[C@H]1O[C@@H]1C(=O)O)C(=O)NCCCCN=C(N)N` [Composition E-64, E-64], the Percentage inhibition is reported as −15.5% (0.0001 μM) and −1.1 ^ % (0.001 μM).
